In ChEMBL document CHEMBL1128620, “Relationship between cytotoxicity and DNA-binding affinity of amidine derivatives of tetrahydroquino[4,3-b][1]benzazepines and tetrahydrobenzo[k]naphthyridines” (Bioorg Med Chem Lett, 1995):

Assays:
CH1 = assay: In vitro cytotoxicity against CH1 ovarian carcinoma cells; assay type: functional, cell-based; details: Homo sapiens
Nucleic Acid = assay: DNA binding affinity was evaluated as thermal denaturation using calf thymus DNA; assay type: nucleic-acid assay; details: Bos taurus
SK-OV-3 = assay: In vitro cytotoxicity against SKOV-3 ovarian carcinoma cells; assay type: functional, cell-based; details: Homo sapiens

Compound	ΔTm (Nucleic Acid) [°C]	IC50 (CH1) [µM]	IC50 (SK-OV-3) [µM]
CC1C[C@]2(C)C(NCCCN)=Nc3ccccc3[C@@H]2N(C)c2ccccc21 (some centres undefined)	0.46	0.5	3.3
CNc1cccc2c1C(C)C[C@]1(C)C(NCCCCN)=Nc3ccccc3[C@H]21 (some centres undefined)	1.14	3.5	2.25
CC1C[C@]2(C)C(NCCCCN)=Nc3ccccc3[C@@H]2N(C)c2ccccc21 (some centres undefined)	0.58	1.6	1.6
CNc1cccc2c1C(C)C[C@]1(C)C(NCCCN)=Nc3ccccc3[C@H]21 (some centres undefined)	0.88	2	3.1

The next lines start with results.

ΔTm (Nucleic Acid) [°C]	Compound	IC50 (CH1) [µM]	IC50 (SK-OV-3) [µM]
0.24	CC1C[C@]2(C)C(NCCCO)=Nc3ccccc3[C@@H]2N(C)c2ccccc21 (some centres undefined)	14	32.5
0.17	CCCNC1=Nc2ccccc2[C@@H]2N(C)c3ccccc3C(C)C[C@]12C (some centres undefined)	10.5	1.4
0.29	CCCNC1=Nc2ccccc2[C@@H]2c3cccc(NC)c3C(C)C[C@]12C (some centres undefined)	9	12
0.35	CNc1cccc2c1C(C)C[C@]1(C)C(NCCCO)=Nc3ccccc3[C@H]21 (some centres undefined)	6	12.5
